Assay results as given in ChEMBL document CHEMBL2440003, “Novel BACE1 inhibitors with a non-acidic heterocycle at the P1' position” (Bioorg Med Chem, 2013).

Columns and labels:
Beta-secretase 1 [1] = target: T1, Beta-secretase 1 (Homo sapiens, UniProt P56817); assay: Inhibition of recombinant human BACE1 at 2 uM by FRET analysis
Beta-secretase 1 [2] = target: T1, Beta-secretase 1; assay: Inhibition of recombinant human BACE1 at 0.2 uM by FRET analysis
Renin = target: T2, Renin (Homo sapiens, UniProt P00797); assay: Inhibition of human renin
T2 sequence (P00797 whole entry): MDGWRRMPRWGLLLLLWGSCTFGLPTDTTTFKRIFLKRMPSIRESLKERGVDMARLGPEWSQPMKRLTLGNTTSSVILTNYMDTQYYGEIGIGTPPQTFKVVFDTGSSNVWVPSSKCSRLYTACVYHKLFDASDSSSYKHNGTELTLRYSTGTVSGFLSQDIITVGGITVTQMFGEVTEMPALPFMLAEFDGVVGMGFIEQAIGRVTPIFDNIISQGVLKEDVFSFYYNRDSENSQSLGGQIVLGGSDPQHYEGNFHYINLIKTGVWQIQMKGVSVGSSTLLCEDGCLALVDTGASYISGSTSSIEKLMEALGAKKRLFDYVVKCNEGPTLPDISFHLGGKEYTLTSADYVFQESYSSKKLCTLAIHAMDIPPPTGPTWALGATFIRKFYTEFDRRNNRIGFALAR

Beta-secretase 1 [3] = target: T1, Beta-secretase 1; assay: Inhibition of recombinant human BACE1 by FRET analysis

T1 sequence (P56817 whole entry): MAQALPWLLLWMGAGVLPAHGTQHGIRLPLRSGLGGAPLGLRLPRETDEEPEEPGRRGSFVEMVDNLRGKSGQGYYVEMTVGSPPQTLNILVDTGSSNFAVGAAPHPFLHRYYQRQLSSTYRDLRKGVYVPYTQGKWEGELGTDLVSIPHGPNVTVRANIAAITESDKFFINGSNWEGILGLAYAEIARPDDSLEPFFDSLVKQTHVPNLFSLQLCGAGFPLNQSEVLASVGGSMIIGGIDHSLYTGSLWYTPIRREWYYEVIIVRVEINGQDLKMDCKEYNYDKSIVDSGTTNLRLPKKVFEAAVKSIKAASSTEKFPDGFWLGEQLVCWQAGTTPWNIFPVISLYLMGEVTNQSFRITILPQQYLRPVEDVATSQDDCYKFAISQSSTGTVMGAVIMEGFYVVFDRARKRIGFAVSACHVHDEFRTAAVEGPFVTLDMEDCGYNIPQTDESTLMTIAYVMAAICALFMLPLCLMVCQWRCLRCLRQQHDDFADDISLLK

Row | SMILES | inhibition (Beta-secretase 1 [1]) | inhibition (Beta-secretase 1 [2]) | IC50 (Renin) | IC50 (Beta-secretase 1 [3])
1 | C[C@@H](NC(=O)c1cc(C(=O)N[C@@H](Cc2ccccc2)[C@H](O)C(=O)Nc2nccs2)cc(N(C)S(C)(=O)=O)c1)c1ccccc1 | 19% | – | – | –
2 | C[C@@H](NC(=O)c1cc(C(=O)N[C@@H](Cc2ccccc2)[C@@H](O)C(=O)Nc2ncc([N+](=O)[O-])s2)cc(N(C)S(C)(=O)=O)c1)c1ccccc1 | 96% | 73% | – | –
3 | C[C@@H](NC(=O)c1cc(C(=O)N[C@@H](Cc2ccccc2)[C@@H](O)C(=O)Nc2nnc(C(C)(C)C)s2)cc(N(C)S(C)(=O)=O)c1)c1ccccc1 | 48% | – | – | –
4 | C[C@@H](NC(=O)c1cc(C(=O)N[C@@H](Cc2ccccc2)[C@H](O)CNC2CC2)cc(N(C)S(C)(=O)=O)c1)c1ccccc1 | – | – | > 50 µM | –
5 | COC(=O)c1cnc(NC(=O)[C@H](O)[C@H](Cc2ccccc2)NC(=O)c2cc(C(=O)N[C@H](C)c3ccccc3)cc(N(C)S(C)(=O)=O)c2)s1 | 87% | 56% | – | –
6 | C[C@@H](NC(=O)c1cc(C(=O)N[C@@H](Cc2ccccc2)[C@@H](O)C(=O)Nc2nncs2)cc(N(C)S(C)(=O)=O)c1)c1ccccc1 | 83% | 39% | – | –
7 | C[C@@H](NC(=O)c1cc(C(=O)N[C@@H](Cc2ccccc2)[C@H](O)C(=O)Nc2nncs2)cc(N(C)S(C)(=O)=O)c1)c1ccccc1 | 38% | – | – | –
8 | CSc1nnc(NC(=O)[C@H](O)[C@H](Cc2ccccc2)NC(=O)c2cc(C(=O)N[C@H](C)c3ccccc3)cc(N(C)S(C)(=O)=O)c2)s1 | 84% | 43% | – | –
9 | CCc1nnc(NC(=O)[C@H](O)[C@H](Cc2ccccc2)NC(=O)c2cc(C(=O)N[C@H](C)c3ccccc3)cc(N(C)S(C)(=O)=O)c2)s1 | 88% | 51% | – | –
10 | C[C@@H](NC(=O)c1cc(C(=O)N[C@@H](Cc2ccccc2)[C@@H](O)C(=O)Nc2ncc(Br)s2)cc(N(C)S(C)(=O)=O)c1)c1ccccc1 | 78% | – | – | –
11 | C[C@@H](NC(=O)c1cc(C(=O)N[C@@H](Cc2ccccc2)[C@@H](O)C(=O)Nc2nnc(C(F)(F)F)s2)cc(N(C)S(C)(=O)=O)c1)c1ccccc1 | 96% | 75% | – | –
12 | CCSc1nnc(NC(=O)[C@H](O)[C@H](Cc2ccccc2)NC(=O)c2cc(C(=O)N[C@H](C)c3ccccc3)cc(N(C)S(C)(=O)=O)c2)s1 | 86% | 45% | – | –
13 | COC(=O)c1csc(NC(=O)[C@H](O)[C@H](Cc2ccccc2)NC(=O)c2cc(C(=O)N[C@H](C)c3ccccc3)cc(N(C)S(C)(=O)=O)c2)n1 | 30% | – | – | –
14 | C[C@@H](NC(=O)c1cc(C(=O)N[C@@H](Cc2ccccc2)[C@@H](O)C(=O)Nc2nccs2)cc(N(C)S(C)(=O)=O)c1)c1ccccc1 | 48% | – | – | –

More lines, now with the values ahead:

Row | inhibition (Beta-secretase 1 [1]) | inhibition (Beta-secretase 1 [2]) | IC50 (Renin) | IC50 (Beta-secretase 1 [3]) | SMILES
15 | 29% | – | – | – | C[C@@H](NC(=O)c1cc(C(=O)N[C@@H](Cc2ccccc2)[C@@H](O)C(=O)Nc2nc3ccccc3s2)cc(N(C)S(C)(=O)=O)c1)c1ccccc1
16 | 90% | 50% | – | – | Cc1nnc(NC(=O)[C@H](O)[C@H](Cc2ccccc2)NC(=O)c2cc(C(=O)N[C@H](C)c3ccccc3)cc(N(C)S(C)(=O)=O)c2)s1
17 | 58% | – | – | – | Cc1nnc(NC(=O)[C@@H](O)[C@H](Cc2ccccc2)NC(=O)c2cc(C(=O)N[C@H](C)c3ccccc3)cc(N(C)S(C)(=O)=O)c2)s1
18 | 5% | – | – | – | C[C@@H](NC(=O)c1cc(C(=O)N[C@@H](Cc2ccccc2)[C@H](O)C(=O)Nc2nc3ccccc3s2)cc(N(C)S(C)(=O)=O)c1)c1ccccc1
19 | 43% | – | – | – | C[C@@H](NC(=O)c1cc(C(=O)N[C@@H](Cc2ccccc2)[C@@H](O)C(=O)Nc2nnc(-c3ccccc3)s2)cc(N(C)S(C)(=O)=O)c1)c1ccccc1
20 | 97% | 79% | – | 0.026 µM | C[C@@H](NC(=O)c1cc(C(=O)N[C@@H](Cc2ccccc2)[C@@H](O)C(=O)Nc2nnc(Br)s2)cc(N(C)S(C)(=O)=O)c1)c1ccccc1
21 | 49% | – | – | – | C[C@@H](NC(=O)c1cc(C(=O)N[C@@H](Cc2ccccc2)[C@@H](O)C(=O)Nc2nnc(-c3ccncc3)s2)cc(N(C)S(C)(=O)=O)c1)c1ccccc1
